Data as given in ChEMBL document CHEMBL1156451 (J Biol Chem, 2007).
Converted amounts (≈) assume the structure as drawn. The source made the active and inactive calls. The calls are words filed in the database; no cut-off is given here. Where a SMILES comes first, the peptide text is derived from it.

What was measured:
Escherichia coli [1] = experiment: Antibacterial activity against Escherichia coli K12 ATCC 23716 after 24 hrs in Mueller-Hinton broth medium; assay type: functional; details: K12, 24 h
Brucella abortus [2] = experiment: Antibacterial activity against Brucella abortus 9.19 (per-) after 24 hrs in Mueller-Hinton broth medium; assay type: functional
Brucella abortus [3] = experiment: Antibacterial activity against Brucella abortus 9.49 (per-) after 48 hrs in Mueller-Hinton broth medium; assay type: functional
HeLa [4] = experiment: Cytotoxicity against human HeLa cells at 100 ug/ml after 24 hrs by MTT assay relative to control; assay type: functional
Acinetobacter baumannii = experiment: Antibacterial activity against Acinetobacter baumannii ATCC 19606 after 24 hrs in Mueller-Hinton broth medium; assay type: functional; details: ATCC 19606, 24 h
Staphylococcus aureus = experiment: Antibacterial activity against methicillin-resistant Staphylococcus aureus ATCC 43300 after 24 hrs in Mueller-Hinton broth medium; assay type: functional; details: ATCC 43300, 24 h
Escherichia coli [5] = experiment: Antibacterial activity against Escherichia coli K12 ATCC 23716 in 10% Luria-Bertani medium/90% Hepes buffer at pH 7.0; assay type: functional
Pseudomonas aeruginosa = experiment: Antibacterial activity against Pseudomonas aeruginosa CUN 4158-02 after 24 hrs in Mueller-Hinton broth medium; assay type: functional
Escherichia coli [6] = experiment: Antibacterial activity against Escherichia coli ATCC 25922 after 24 hrs in Mueller-Hinton broth medium; assay type: functional; details: ATCC 25922, 24 h
[7] = system: Bordetella bronchiseptica; experiment: Antibacterial activity against Bordetella bronchiseptica CUN 11844-99 after 24 hrs in Mueller-Hinton broth medium; assay type: functional
HeLa [8] = experiment: Cytotoxicity against human HeLa cells at 100 ug/ml after 24 hrs by neutral red uptake assay relative to control; assay type: functional
[9] = Toxicity in human erythrocytes assessed as hemolysis at 100 ug/ml; assay type: cell-based, Erythrocyte; details: read-out: Activity

Row | Compound | MBC (Escherichia coli [1]) [µg/mL] | MIC (Escherichia coli [1]) [µg/mL] | MBC (Brucella abortus [2]) [µg/mL] | MIC (Brucella abortus [3]) [µg/mL] | Activity (HeLa [4]) | MBC (Acinetobacter baumannii) [µg/mL] | MIC (Acinetobacter baumannii) [µg/mL] | MBC (Staphylococcus aureus) [µg/mL] | MIC (Staphylococcus aureus) [µg/mL] | MBC (Escherichia coli [5]) [µg/mL] | MIC (Escherichia coli [5]) [µg/mL] | MBC (Pseudomonas aeruginosa) [µg/mL] | MIC (Pseudomonas aeruginosa) [µg/mL] | MBC (Escherichia coli [6]) [µg/mL] | MIC (Escherichia coli [6]) [µg/mL] | MBC [7] [µg/mL] | MIC [7] [µg/mL] | Activity (HeLa [8]) [%] | hemolysis at 100 ug/ml [9] [%]
1 | CC[C@H](C)[C@H](NC(=O)[C@H](CCCNC(=N)N)NC(=O)[C@H](CCCNC(=N)N)NC(=O)[C@H](CO)NC(=O)[C@@H](NC(=O)CNC(=O)[C@H](CCCNC(=N)N)NC(=O)[C@H](CC(C)C)NC(=O)[C@@H](NC(=O)[C@@H](N)CCCNC(=N)N)[C@@H](C)CC)C(C)C)C(=O)N[C@@H](CCSC)C(=O)N[C@@H](CCCNC(=N)N)C(=O)N[C@@H](CCCNC(=N)N)C(=O)N[C@H](C(=O)N[C@@H](CC(C)C)C(=O)N[C@H](C(=O)NCC(=O)N[C@@H](CCCNC(=N)N)C(=O)N[C@@H](CCCNC(=N)N)C(N)=O)[C@@H](C)O)[C@@H](C)CC [RILRGVSRRIM RR ILTGRR] (H-RILRGVSRRIMRRILTGRR-NH2) | 16 (≈ 6.77 µM) | 16 (≈ 6.77 µM) | 32 (≈ 13.5 µM) | 8 (≈ 3.38 µM) | 6.6% | 8 (≈ 3.38 µM) | 8 (≈ 3.38 µM) | 32 (≈ 13.5 µM) | 32 (≈ 13.5 µM) | 16 (≈ 6.77 µM) | 16 (≈ 6.77 µM) | 128 (≈ 54.1 µM) | 32 (≈ 13.5 µM) | 16 (≈ 6.77 µM) | 16 (≈ 6.77 µM) | 4 (≈ 1.69 µM) | 4 (≈ 1.69 µM) | 13.5 | –
2 | CC[C@H](C)[C@H](NC(=O)[C@H](CCCCN)NC(=O)[C@H](CCCCN)NC(=O)[C@H](CO)NC(=O)[C@@H](NC(=O)[C@@H](N)CCCCN)[C@@H](C)CC)C(=O)N[C@@H](CCSC)C(=O)N[C@@H](CCCNC(=N)N)C(=O)N[C@H](C(=O)N[C@@H](Cc1ccccc1)C(=O)N[C@@H](CC(C)C)C(=O)N[C@@H](CCCNC(=N)N)C(=O)N[C@@H](CCCNC(=N)N)C(=O)N[C@H](C(=O)N[C@@H](CC(C)C)C(=O)N[C@H](C(=O)NCC(=O)N[C@@H](CCCCN)C(=O)N[C@@H](CCCCN)C(N)=O)[C@@H](C)O)[C@@H](C)CC)[C@@H](C)O (H-KISKKIMRTFLRRILTGKK-NH2) | 8 (≈ 3.45 µM) | 8 (≈ 3.45 µM) | 32 (≈ 13.8 µM) | 2 (≈ 0.863 µM) | 21.1% | 4 (≈ 1.73 µM) | 4 (≈ 1.73 µM) | 256 (≈ 110 µM) | 256 (≈ 110 µM) | 50 (≈ 21.6 µM) | 25 (≈ 10.8 µM) | 8 (≈ 3.45 µM) | 8 (≈ 3.45 µM) | 16 (≈ 6.91 µM) | 16 (≈ 6.91 µM) | 128 (≈ 55.2 µM) | 128 (≈ 55.2 µM) | 56.4 | –
3 | CC[C@H](C)[C@H](NC(=O)[C@H](CCCCN)NC(=O)[C@H](CCCCN)NC(=O)[C@H](CO)NC(=O)[C@@H](NC(=O)CNC(=O)[C@H](CCCNC(=N)N)NC(=O)[C@H](CC(C)C)NC(=O)[C@@H](NC(=O)[C@@H](N)CCCCN)[C@@H](C)CC)C(C)C)C(=O)N[C@@H](CCSC)C(=O)N[C@@H](CCCNC(=N)N)C(=O)N[C@@H](CCCNC(=N)N)C(=O)N[C@H](C(=O)N[C@@H](CC(C)C)C(=O)N[C@H](C(=O)NCC(=O)N[C@@H](CCCCN)C(=O)N[C@@H](CCCCN)C(N)=O)[C@@H](C)O)[C@@H](C)CC (H-KILRGVSKKIMRRILTGKK-NH2) | 64 (≈ 28.8 µM) | 64 (≈ 28.8 µM) | 128 (≈ 57.5 µM) | 64 (≈ 28.8 µM) | inactive | 2 (≈ 0.899 µM) | 2 (≈ 0.899 µM) | > 256 | > 256 | 32 (≈ 14.4 µM) | 16 (≈ 7.19 µM) | 32 (≈ 14.4 µM) | 32 (≈ 14.4 µM) | 32 (≈ 14.4 µM) | 32 (≈ 14.4 µM) | 4 (≈ 1.8 µM) | 4 (≈ 1.8 µM) | – | < 5
4 | CC[C@H](C)[C@H](NC(=O)[C@H](CCCCN)NC(=O)[C@H](CCCCN)NC(=O)[C@H](CO)NC(=O)[C@@H](NC(=O)CNC(=O)[C@H](CCCNC(=N)N)NC(=O)[C@H](CC(C)C)NC(=O)[C@@H](NC(=O)[C@@H](N)CCCCN)[C@@H](C)CC)C(C)C)C(=O)N[C@@H](CCSC)C(=O)N[C@@H](CCCNC(=N)N)C(=O)N[C@@H](CCCNC(=N)N)C(=O)N[C@H](C(=O)N[C@@H](CO)C(=O)N[C@@H](CCCCN)C(=O)N[C@@H](CC(=O)O)C(=O)N[C@H](C(=O)N[C@@H](CC(C)C)C(=O)N[C@H](C(=O)NCC(=O)N[C@@H](CCCCN)C(=O)N[C@@H](CCCCN)C(N)=O)[C@@H](C)O)[C@@H](C)CC)[C@@H](C)CC (H-KILRGVSKKIMRRISKDILTGKK-NH2) | 16 (≈ 6 µM) | 16 (≈ 6 µM) | > 128 | 4 (≈ 1.5 µM) | inactive | 8 (≈ 3 µM) | 8 (≈ 3 µM) | > 256 | > 256 | 25 (≈ 9.37 µM) | 12.5 (≈ 4.68 µM) | 16 (≈ 6 µM) | 16 (≈ 6 µM) | 64 (≈ 24 µM) | 16 (≈ 6 µM) | 1 (≈ 0.375 µM) | 1 (≈ 0.375 µM) | – | < 5
5 | CC[C@H](C)[C@H](NC(=O)[C@H](CCCNC(=N)N)NC(=O)[C@H](CCCCN)NC(=O)[C@H](CO)NC(=O)[C@@H](NC(=O)CNC(=O)[C@H](CC(C)C)NC(=O)[C@@H](NC(=O)[C@@H](N)CCCCN)[C@@H](C)CC)C(C)C)C(=O)N[C@@H](CC(C)C)C(=O)N[C@H](C(=O)NCC(=O)N[C@@H](CCCCN)C(=O)N[C@@H](CCCCN)C(N)=O)[C@@H](C)O (H-KILGVSKRILTGKK-NH2) | > 256 | 256 (≈ 166 µM) | > 12.8 | > 128 | inactive | > 256 | > 256 | > 256 | > 256 | > 100 | 50 (≈ 32.5 µM) | > 256 | > 256 | > 256 | > 256 | > 256 | 256 (≈ 166 µM) | – | < 5
6 | CC[C@H](C)[C@H](NC(=O)[C@H](CCCCN)NC(=O)[C@H](CCCCN)NC(=O)[C@H](CO)NC(=O)[C@@H](NC(=O)CNC(=O)[C@H](CCCNC(=N)N)NC(=O)[C@H](CC(C)C)NC(=O)[C@@H](NC(=O)[C@@H](N)CCCCN)[C@@H](C)CC)C(C)C)C(=O)N[C@@H](CCSC)C(=O)N[C@@H](CCCNC(=N)N)C(=O)N[C@H](C(=O)N[C@@H](Cc1ccccc1)C(=O)N[C@@H](CC(C)C)C(=O)N[C@@H](CCCNC(=N)N)C(=O)N[C@@H](CCCNC(=N)N)C(N)=O)[C@@H](C)O (H-KILRGVSKKIMRTFLRR-NH2) | 16 (≈ 7.61 µM) | 8 (≈ 3.81 µM) | 64 (≈ 30.5 µM) | 16 (≈ 7.61 µM) | inactive | 16 (≈ 7.61 µM) | 8 (≈ 3.81 µM) | 128 (≈ 60.9 µM) | 128 (≈ 60.9 µM) | 8 (≈ 3.81 µM) | 4 (≈ 1.9 µM) | 128 (≈ 60.9 µM) | 128 (≈ 60.9 µM) | 32 (≈ 15.2 µM) | 32 (≈ 15.2 µM) | 8 (≈ 3.81 µM) | 8 (≈ 3.81 µM) | – | < 5
7 | CC[C@H](C)[C@H](NC(=O)[C@H](CCCNC(=N)N)NC(=O)[C@H](CCCNC(=N)N)NC(=O)[C@H](CC(C)C)NC(=O)[C@H](Cc1ccccc1)NC(=O)[C@@H](NC(=O)[C@H](CCCNC(=N)N)NC(=O)[C@H](CCSC)NC(=O)[C@@H](NC(=O)[C@H](CCCCN)NC(=O)[C@@H](N)CCCCN)[C@@H](C)CC)[C@@H](C)O)C(=O)N[C@@H](CO)C(=O)N[C@@H](CCCCN)C(=O)N[C@@H](CCCCN)C(=O)N[C@H](C(=O)N[C@@H](CC(C)C)C(=O)N[C@H](C(=O)NCC(=O)N[C@@H](CCCCN)C(=O)N[C@@H](CCCCN)C(N)=O)[C@@H](C)O)[C@@H](C)CC (H-KKIMRTFLRRISKKILTGKK-NH2) | 32 (≈ 13.1 µM) | 16 (≈ 6.54 µM) | 32 (≈ 13.1 µM) | 4 (≈ 1.64 µM) | inactive | 8 (≈ 3.27 µM) | 8 (≈ 3.27 µM) | 256 (≈ 105 µM) | 128 (≈ 52.3 µM) | 32 (≈ 13.1 µM) | 16 (≈ 6.54 µM) | 128 (≈ 52.3 µM) | 32 (≈ 13.1 µM) | 64 (≈ 26.2 µM) | 32 (≈ 13.1 µM) | 16 (≈ 6.54 µM) | 2 (≈ 0.818 µM) | – | < 5
